Experiments:
[1] = biological target: CSF-1R kinase (Homo sapiens (Human), UniProt P07333); test: CSF-1R kinase assay (AlphaScreen); assay type: biochemical
Procedure: Inhibition of CSF-1R kinase activity by a test compound disclosed herein was estimated by AlphaScreen (PerkinElmer). […] Reactions were incubated at 30° C. for 45 min and stopped by adding 5 μL of 50 mM EDTA. Analysis of resulting product using an AlphaScreen kit, and counted with Enspire Alpha (PerkinElmer). […] The IC50 values of quinoxaline compounds of this invention against CSF-1R kinase were determined using the GraphPad Prism 5 software.

[2] = biological target: c-KIT kinase (Homo sapiens (Human), UniProt P10721); test: c-KIT kinase assay (radiometric); assay type: biochemical
Sequence of c-KIT kinase (P10721 26-976): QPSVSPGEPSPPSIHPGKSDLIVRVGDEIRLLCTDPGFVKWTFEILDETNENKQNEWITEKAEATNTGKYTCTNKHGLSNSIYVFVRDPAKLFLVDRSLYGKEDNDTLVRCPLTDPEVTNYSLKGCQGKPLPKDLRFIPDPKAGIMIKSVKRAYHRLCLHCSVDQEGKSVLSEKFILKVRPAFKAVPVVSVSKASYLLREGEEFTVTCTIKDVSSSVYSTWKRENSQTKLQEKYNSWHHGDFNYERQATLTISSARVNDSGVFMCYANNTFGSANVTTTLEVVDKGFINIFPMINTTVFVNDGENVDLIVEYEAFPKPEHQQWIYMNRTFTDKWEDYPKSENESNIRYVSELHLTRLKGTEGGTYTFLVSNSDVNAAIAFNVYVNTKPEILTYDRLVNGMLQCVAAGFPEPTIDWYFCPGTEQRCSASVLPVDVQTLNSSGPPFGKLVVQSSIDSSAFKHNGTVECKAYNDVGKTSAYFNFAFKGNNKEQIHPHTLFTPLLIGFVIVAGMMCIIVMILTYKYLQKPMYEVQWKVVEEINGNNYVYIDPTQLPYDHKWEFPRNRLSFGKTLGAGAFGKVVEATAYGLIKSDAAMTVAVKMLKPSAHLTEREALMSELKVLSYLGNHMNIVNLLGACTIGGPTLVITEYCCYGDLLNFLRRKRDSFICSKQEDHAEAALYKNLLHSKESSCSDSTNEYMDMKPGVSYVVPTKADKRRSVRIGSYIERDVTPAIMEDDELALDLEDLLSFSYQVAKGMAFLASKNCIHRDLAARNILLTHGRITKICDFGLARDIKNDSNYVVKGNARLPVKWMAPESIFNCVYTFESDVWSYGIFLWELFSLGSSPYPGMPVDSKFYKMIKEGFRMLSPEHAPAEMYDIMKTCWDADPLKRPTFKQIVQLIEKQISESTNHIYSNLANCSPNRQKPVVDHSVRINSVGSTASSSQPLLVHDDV
Procedure: (§1) Inhibition of c-KIT kinase activity by a test compound disclosed herein was estimated by radiometric assay. Standard assay conditions were 20 ng of recombinant c-Kit (SignalChem) with 2 μg of substrate Poly-(Glu 4:Tyr 1) (sigma) in the assay buffer in kinase reaction buffer (10 mM MOPS pH 7.0, 0.21 mM EDTA, 0.5% glycerol, 0.001% Brij-35, 0.01 2-mercaptoehtanol, 1 mg/ml BSA, 10 mM MgCl2, 10 mM MnCl2, 10 μM ATP, 0.1 μCi per well [^33P]-ATP, in the presence of test compound (diluted in final concentration of 4% DMSO) or DMSO control, with a final volume of 25 μl for 60 minutes at 30° C. The reaction was stopped by adding 5 μl of 3% phosphoric acid solution. Total reaction solution was then harvested onto a filter plate (UniFilter-96 GF/B, PerkinElmer), and washed 20 times for 5 min with dH2O. 30 μl of MicroScint™-20 Cocktail (PerkinElmer) was added to dried plate. The plate was sealed and counted using a TopCount scintillation detector (PerkinElmer). […] The IC50 values of quinoxaline compounds of this invention against c-KIT kinase were determined using the GraphPad Prism 5 software.
(§2) The IC50 values for selected quinoxaline compounds of this invention against CSF-1R, c-KIT, FLT3, and PDGFRβ are summarized in Table 3.

[3] = biological target: FLT3 kinase (Homo sapiens (Human), UniProt P36888); test: FLT3 kinase assay (radiometric); assay type: biochemical
Sequence of FLT3 kinase (P36888 27-993): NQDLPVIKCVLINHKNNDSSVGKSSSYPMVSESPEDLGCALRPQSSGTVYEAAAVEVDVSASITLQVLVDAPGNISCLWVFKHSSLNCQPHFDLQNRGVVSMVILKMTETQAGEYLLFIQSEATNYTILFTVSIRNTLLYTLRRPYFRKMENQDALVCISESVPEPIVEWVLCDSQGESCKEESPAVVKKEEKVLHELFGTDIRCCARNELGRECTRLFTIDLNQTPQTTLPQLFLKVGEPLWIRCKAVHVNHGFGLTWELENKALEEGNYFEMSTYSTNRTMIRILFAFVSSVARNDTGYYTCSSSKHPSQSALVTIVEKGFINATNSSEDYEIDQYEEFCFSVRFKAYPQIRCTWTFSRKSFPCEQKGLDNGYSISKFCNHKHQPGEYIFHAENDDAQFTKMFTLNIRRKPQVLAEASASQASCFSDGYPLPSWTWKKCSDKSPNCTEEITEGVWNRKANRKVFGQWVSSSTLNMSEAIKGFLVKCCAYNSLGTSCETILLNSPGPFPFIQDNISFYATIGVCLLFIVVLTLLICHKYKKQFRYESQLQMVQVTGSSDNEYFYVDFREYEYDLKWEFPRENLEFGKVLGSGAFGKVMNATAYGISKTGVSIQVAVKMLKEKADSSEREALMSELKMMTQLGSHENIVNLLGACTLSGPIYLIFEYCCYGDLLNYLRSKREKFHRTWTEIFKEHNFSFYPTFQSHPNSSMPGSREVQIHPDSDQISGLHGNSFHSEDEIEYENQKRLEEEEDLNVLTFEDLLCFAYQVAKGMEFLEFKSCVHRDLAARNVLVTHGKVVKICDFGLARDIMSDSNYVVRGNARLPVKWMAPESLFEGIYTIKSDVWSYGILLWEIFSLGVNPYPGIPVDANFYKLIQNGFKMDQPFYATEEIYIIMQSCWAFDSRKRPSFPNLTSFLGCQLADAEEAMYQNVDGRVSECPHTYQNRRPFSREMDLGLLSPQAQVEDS
Procedure: as §1, with “of FLT3” for “of c-KIT”, “were 5” for “were 20”, “recombinant FLT3 (Thermo Fisher)” for “recombinant c-Kit (SignalChem)”, “BSA, MgCl2” for “BSA,”, “10 mM,” for “10 mM MgCl2, 10 mM MnCl2,”, “against FLT3” for “against c-KIT”
as §2

[4] = biological target: PDGFRβ kinase (Homo sapiens (Human), UniProt P09619); test: PDGFRβ kinase assay (radiometric); assay type: biochemical; settings: bound
Sequence of PDGFRβ kinase (P09619 33-1106): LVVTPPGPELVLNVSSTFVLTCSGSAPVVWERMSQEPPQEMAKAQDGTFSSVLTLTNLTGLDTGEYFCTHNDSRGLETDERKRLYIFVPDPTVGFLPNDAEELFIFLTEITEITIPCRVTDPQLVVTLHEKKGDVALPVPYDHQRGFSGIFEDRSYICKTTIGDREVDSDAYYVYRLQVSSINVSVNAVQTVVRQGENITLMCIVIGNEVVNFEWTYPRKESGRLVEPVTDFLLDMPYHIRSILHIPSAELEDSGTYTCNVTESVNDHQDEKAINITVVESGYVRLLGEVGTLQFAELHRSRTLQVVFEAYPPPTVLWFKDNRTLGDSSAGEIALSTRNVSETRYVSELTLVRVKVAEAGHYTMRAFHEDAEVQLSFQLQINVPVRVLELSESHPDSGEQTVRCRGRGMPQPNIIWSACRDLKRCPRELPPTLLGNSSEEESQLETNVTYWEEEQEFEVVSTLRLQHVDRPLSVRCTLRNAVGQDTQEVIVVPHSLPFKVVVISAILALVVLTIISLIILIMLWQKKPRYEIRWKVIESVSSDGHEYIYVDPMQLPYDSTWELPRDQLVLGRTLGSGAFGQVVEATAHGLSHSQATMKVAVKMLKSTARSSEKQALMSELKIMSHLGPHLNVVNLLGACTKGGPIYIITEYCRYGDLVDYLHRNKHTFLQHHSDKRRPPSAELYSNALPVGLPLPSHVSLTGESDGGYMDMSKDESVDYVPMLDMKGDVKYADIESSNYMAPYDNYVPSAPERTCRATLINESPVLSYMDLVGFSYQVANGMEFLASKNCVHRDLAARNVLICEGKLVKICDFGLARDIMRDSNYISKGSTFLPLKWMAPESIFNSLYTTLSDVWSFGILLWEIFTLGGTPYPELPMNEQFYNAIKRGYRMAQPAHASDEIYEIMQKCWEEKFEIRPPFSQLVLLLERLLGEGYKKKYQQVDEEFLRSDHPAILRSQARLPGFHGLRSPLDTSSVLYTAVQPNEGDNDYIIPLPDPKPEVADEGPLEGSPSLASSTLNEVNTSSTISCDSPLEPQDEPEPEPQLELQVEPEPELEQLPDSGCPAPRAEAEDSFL
Procedure: as §1, with “of PDGFRβ” for “of c-KIT”, “were 10” for “were 20”, “recombinant PDGFRβ” for “recombinant c-Kit”, “well [^33P]-ATP),” for “well [^33P]-ATP,”, “against PDGFRβ” for “against c-KIT”
as §2

[5] = test system: CSF-1-dependent M-NFS-60 mouse myeloid leukemia cell; test: M-NFS-60 cell proliferation assay (CellTiter-96); assay type: cell-based; settings: Cytotoxicity, M-NFS-60 cells, 72 hours
Procedure: (§3) Inhibition of cell growth by compounds was measured using CellTiter™-96 assay. The cytotoxicity of compounds was evaluated in CSF-1-dependent M-NFS-60 mouse myeloid leukemia cell, FLT3 signal addicted MV4-11 human acute myeloid leukemia cell with FLT3-ITD mutation, c-KIT signal addicted Kasumi-1 human acute myeloid leukemia cell with c-KIT N822K activating mutation, and THP-1 human acute monocytic leukemia cell harboring NRAS G12D mutation.
The compounds disclosed herein were tested in M-NFS-60 cell proliferation assay to determine their cellular potency against CSF-1R. […] Inhibition of CSF-1R kinase activity will cause reduced growth and/or cell death. […] Cells were allowed to expand until reaching saturation at which point they were subcultured or harvested for assay use.
(§4) M-NFS-60, Kasumi-1, MV4-11 and THP-1 cells were seeded into 96-well plates at 2000, 64000, 6500, and 5000 cells/well, respectively, and incubated at 37° C., 5% CO2 overnight. Then, these seeded cells were treated with increasing concentrations of the test compounds and incubated for another 72 hours. At the end of the incubation, CellTiter96® AQueous One Solution Reagent (Promega) was added and incubated for 4 hours. Cell viability was determined by measuring absorbance at 490 nm using EMax® microplate reader (Molecular Devices).

[6] = test system: MV4-11 human acute myeloid leukemia cell with FLT3-ITD mutation; test: MV4-11 cell proliferation assay (CellTiter-96); assay type: cell-based; settings: Cytotoxicity, MV4-11 cells, 72 hours
Procedure: as §3
(§5) The compounds disclosed herein were tested in MV4-11 cell proliferation assay to determine their cellular potency against FLT3 kinase. MV4-11 human acute myeloid leukemia cells harbor ligand-independent FLT3-ITD activating mutation, which render its proliferation FLT3-ITD dependent. Inhibition of FLT3 kinase activity will cause reduced growth and/or cell death. […] Cells were allowed to expand until reaching saturation at which point they were subcultured or harvested for assay use.
as §4

[7] = test system: Kasumi-1 human acute myeloid leukemia cell with c-KIT N822K activating mutation; test: Kasumi-1 cell proliferation assay (CellTiter-96); assay type: cell-based; settings: Cytotoxicity, Kasumi-1 cells, 72 hours
Procedure: as §3
as §5, with “Kasumi” for “MV4-11”, “c-KIT” for “FLT3”, “N822K c-KIT” for “FLT3-ITD”, “thus the cell” for “which render its”, “relied on c-KIT signal.” for “FLT3-ITD dependent.”
as §4

[8] = test system: THP-1 human acute monocytic leukemia cell harboring NRAS G12D mutation; test: THP-1 cell proliferation assay (counter screen, CellTiter-96); assay type: cell-based; settings: Cytotoxicity, THP-1 cells (counter screen), 72 hours
Procedure: as §3
THP-1 human acute monocytic leukemia cells harbor NRAS G12D mutation, which renders cell proliferate independently of class III RTKs signal. […] Cells were allowed to expand until reaching saturation at which point they were subcultured or harvested for assay use.
as §4

Sequence of CSF-1R kinase (P07333 20-972): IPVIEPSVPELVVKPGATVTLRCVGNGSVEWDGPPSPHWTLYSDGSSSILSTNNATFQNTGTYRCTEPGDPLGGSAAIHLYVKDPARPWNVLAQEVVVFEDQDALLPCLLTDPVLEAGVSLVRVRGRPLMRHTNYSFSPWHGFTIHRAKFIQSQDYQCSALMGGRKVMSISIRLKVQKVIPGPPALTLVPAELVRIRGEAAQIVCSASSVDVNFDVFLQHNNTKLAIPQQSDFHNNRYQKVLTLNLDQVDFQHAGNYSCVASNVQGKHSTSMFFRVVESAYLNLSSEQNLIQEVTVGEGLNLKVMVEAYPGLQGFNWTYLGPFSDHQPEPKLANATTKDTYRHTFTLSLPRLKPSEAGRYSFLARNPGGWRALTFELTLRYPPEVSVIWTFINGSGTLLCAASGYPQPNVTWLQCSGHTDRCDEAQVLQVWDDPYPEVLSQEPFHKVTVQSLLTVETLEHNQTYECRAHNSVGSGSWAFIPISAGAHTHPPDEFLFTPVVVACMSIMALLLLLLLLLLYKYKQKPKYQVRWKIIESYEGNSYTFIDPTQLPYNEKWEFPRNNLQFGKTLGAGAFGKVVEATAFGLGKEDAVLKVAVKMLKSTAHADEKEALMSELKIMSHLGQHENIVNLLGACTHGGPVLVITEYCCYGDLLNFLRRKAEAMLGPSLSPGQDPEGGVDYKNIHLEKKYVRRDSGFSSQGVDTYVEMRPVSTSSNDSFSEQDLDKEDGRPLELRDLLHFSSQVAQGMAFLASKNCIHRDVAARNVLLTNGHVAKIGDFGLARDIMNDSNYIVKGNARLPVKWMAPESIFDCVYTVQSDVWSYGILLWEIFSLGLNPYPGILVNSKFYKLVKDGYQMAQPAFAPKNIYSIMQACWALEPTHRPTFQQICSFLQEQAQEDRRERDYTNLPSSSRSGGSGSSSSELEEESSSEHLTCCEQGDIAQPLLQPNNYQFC

Row | SMILES | IC50 ([1]; class symbol) [nM] | IC50 ([2]; class symbol) [nM] | IC50 ([3]; bound) [nM] | IC50 [4] [nM] | IC50 ([1]; bound) [nM] | IC50 ([2]; bound) [nM] | IC50 [5] [µM] | IC50 [6] [µM] | IC50 [7] [nM] | IC50 [8] [µM] | IC50 ([3]; class symbol) [nM]
1 | COc1cc(Nc2ccc3ncc(N4CCOCC4)nc3c2C#N)ccc1OCc1cncn1C [Example 55, 6-((3-methoxy-4-((1-methyl-1H-imidazol-5-yl)methoxy)phenyl)amino)-3-morpholinoquinoxaline-5-carbonitrile] | – | 300 to 1000 | > 1000 | > 1000 | > 1000 | – | – | – | – | – | –
2 | COc1ccc(COc2ccc(Nc3ccc4ncc(N5CCOCC5)nc4c3C#N)cc2Cl)cc1 [Example 63, 6-((3-chloro-4-((4-methoxybenzyl)oxy)phenyl)amino)-3-morpholinoquinoxaline-5-carbonitrile] | < 100 | – | > 1000 | > 1000 | – | > 1000 | 1 to 10 | > 10 | > 10000 | > 10 | –
3 | COc1cc(Nc2ccc3ncc(N4CCOCC4)nc3c2C#N)ccc1OCc1ccc(N(C)C)nc1 [Example 104, 6-((4-((6-(dimethylamino)pyridin-3-yl)methoxy)-3-methoxyphenyl)amino)-3-morpholinoquinoxaline-5-carbonitrile] | < 100 | < 100 | > 1000 | > 1000 | – | – | 1 to 10 | 1 to 10 | 1000 to 10000 | > 10 | –
4 | COc1ccc(COc2ccc(Nc3ccc4ncc(OC(C)C)nc4c3C#N)cc2OC)cn1 [Example 119, 3-isopropoxy-6-((3-methoxy-4-((6-methoxypyridin-3-yl)methoxy)phenyl)amino)quinoxaline-5-carbonitrile] | 100 to 300 | – | – | > 1000 | – | > 1000 | 1 to 10 | 1 to 10 | > 10000 | > 10 | 100 to 300
5 | COc1cc(Nc2ccc3ncc(N4CCOCC4)nc3c2C#N)ccc1OCc1ccco1 [Example 122, 6-((4-(furan-2-ylmethoxy)-3-methoxyphenyl)amino)-3-morpholinoquinoxaline-5-carbonitrile] | 100 to 300 | < 100 | > 1000 | > 1000 | – | – | 1 to 10 | 1 to 10 | 300 to 1000 | > 10 | –
6 | COc1cc(Nc2ccc3ncc(N4CCOCC4)nc3c2C#N)ccc1OCC1CCCO1 (centres unmarked) [Example 123, 6-((3-methoxy-4-((tetrahydrofuran-2-yl)methoxy)phenyl)amino)-3-morpholinoquinoxaline-5-carbonitrile] | – | 300 to 1000 | > 1000 | > 1000 | > 1000 | – | > 10 | 1 to 10 | 1000 to 10000 | > 10 | –
7 | COc1ccc(COc2ccc(Nc3ccc4ncc(-n5ccnc5)nc4c3C#N)cc2OC)cn1 [Example 70, 3-(1H-imidazol-1-yl)-6-((3-methoxy-4-((6-methoxypyridin-3-yl)methoxy)phenyl)amino)quinoxaline-5-carbonitrile] | < 100 | – | > 1000 | > 1000 | – | > 1000 | – | – | – | – | –
8 | COc1cc(Nc2ccc3ncc(N4CCOCC4)nc3c2C#N)ccc1OCc1ccc(C)[n+]([O-])c1 [Example 146, 6-((3-methoxy-4-((6-methyl-1-(λ^1-oxidaneyl)-1λ^4-pyridin-3-yl)methoxy)phenyl)amino)-3-morpholinoquinoxaline-5-carbonitrile] | – | 100 to 300 | – | – | – | – | 1 to 10 | 1 to 10 | 1000 to 10000 | > 10 | 100 to 300

Further lines, with some results ahead:

Row | IC50 ([1]; class symbol) [nM] | IC50 ([2]; class symbol) [nM] | IC50 ([3]; bound) [nM] | IC50 [4] [nM] | IC50 ([1]; bound) [nM] | IC50 ([2]; bound) [nM] | SMILES | IC50 [5] [µM] | IC50 [6] [µM] | IC50 [7] [nM] | IC50 [8] [µM] | IC50 ([3]; class symbol) [nM]
9 | 300 to 1000 | 100 to 300 | > 1000 | > 1000 | – | – | COc1ccc(COc2ccc(Nc3ccc4ncc(OC)nc4c3C#N)cc2OC)cc1 [Example 3, 3-methoxy-6-((3-methoxy-4-((4-methoxybenzyl)oxy)phenyl)amino)quinoxaline-5-carbonitrile] | – | – | – | – | –
10 | 300 to 1000 | 100 to 300 | > 1000 | > 1000 | – | – | C#CCOc1ccc(Nc2ccc3ncc(N4CCOCC4)nc3c2C#N)cc1OC [Example 92, 6-((3-methoxy-4-(prop-2-yn-1-yloxy)phenyl)amino)-3-morpholinoquinoxaline-5-carbonitrile] | 1 to 10 | 1 to 10 | 300 to 1000 | > 10 | –
11 | 100 to 300 | – | > 1000 | > 1000 | – | > 1000 | COc1cnc2ccc(Nc3ccc(OCc4ccc(OC)c(C#N)c4)c(OC)c3)c(C#N)c2n1 [Example 140, 6-((4-((3-cyano-4-methoxybenzyl)oxy)-3-methoxyphenyl)amino)-3-methoxyquinoxaline-5-carbonitrile] | – | – | – | – | –
12 | – | 300 to 1000 | > 1000 | > 1000 | > 1000 | – | COc1cc(Nc2ccc3ncc(N4CCOCC4)nc3c2C#N)ccc1OCc1ccccn1 [Example 57, 6-((3-methoxy-4-(pyridin-2-ylmethoxy)phenyl)amino)-3-morpholinoquinoxaline-5-carbonitrile] | – | – | – | – | –
